Patent EP4603546A1, “SOLID DISPERSION CONTAINING SUBSTANCE TO BE DISPERSED, PHARMACEUTICAL COMPOSITION CONTAINING SAME, AND PRODUCTION METHODS THEREFOR” (CHUGAI SEIYAKU KABUSHIKI KAISHA, priority 2022, dated 2024)
In brackets after ≈: the same amount, converted by molar mass. Numbered stars: 1 amine (or outer) side, 2 acyl side, 3 side chain; on linkers, the order of the positions; unused ones are H or OH. Bridge positions count the residues as written; N and C are the ends. Square brackets hold non-standard residues; d marks the D form. Peptide text beside a SMILES is read from it. * marks the point of attachment. hPhe(3,5-F2-4-CF3) = N[C@@H](CCc1cc(F)c(C(F)(F)F)c(F)c1)C(=O)O; hPhe(3-Cl-4-CF3) = N[C@@H](CCc1ccc(C(F)(F)F)c(Cl)c1)C(=O)O; NMePhe(4-CF3) = CN[C@@H](Cc1ccc(C(F)(F)F)cc1)C(=O)O; NEtPhe(4-Me) = CCN[C@@H](Cc1ccc(C)cc1)C(=O)O; NMePhe(4-Me) = CN[C@@H](Cc1ccc(C)cc1)C(=O)O; NMedβ3hAla = C[C@H](CC(=O)[*:2])N(C)[*:1]; NMeGly(cPent) = CN[C@H](C(=O)O)C1CCCC1; Pro(4,4-F2) = O=C(O)[C@@H]1CC(F)(F)CN1; NMeGly(cBu) = CN[C@H](C(=O)O)C1CCC1; NMeCha = CN[C@@H](CC1CCCCC1)C(=O)O; Hyp = O=C(O)[C@@H]1C[C@@H](O)CN1; NMeChg = CN[C@H](C(=O)O)C1CCCCC1; NMeI = CC[C@H](C)[C@H](NC)C(=O)O; NMeD = CN[C@@H](CC(=O)O)C(=O)O; NMeL = CN[C@@H](CC(C)C)C(=O)O; NMeA = CN[C@@H](C)C(=O)O; Pyrrolidide = C1CCN(*)C1; Ac5c = NC1(C(=O)O)CCCC1; Aze = O=C(O)[C@@H]1CCN1; Sar = CNCC(=O)O

Assay: physchem
Conditions: pH 6.5, aqueous buffer
Method: Solubility (unit: mg/mL) was calculated from the measured compound concentration. The HPLC conditions are as follows. Detector: ultraviolet absorption photometer (measurement wavelength: 230 nm) Column: stainless steel tube of 2.1 mm inner diameter, 5 cm long filled with 1.7 µm ethylene cross-linked hybrid particles for liquid chromatography Column temperature: constant temperature near 70°C Mobile phase A: water/trifluoroacetic acid mixed solution (2000/1) Mobile phase B: acetonitrile/trifluoroacetic acid mixed solution (2000/1) Liquid delivery of mobile phase: concentration gradient control by changing the mixing ratio of mobile phase A and mobile phase B as shown in Table 8 below [Table 8]

Row | Structure (SMILES) | solubility thermodynamic [µg/mL]
1 | CC[C@H](C)[C@@H]1NC(=O)[C@H](C2CCC2)N(C)C(=O)C[C@@H](C(=O)N2CCCC2)N(C)C(=O)[C@H](C2CCCCC2)N(C)C(=O)C2(CCCC2)NC(=O)[C@@H]2CC(F)(F)CN2C(=O)[C@H](CCc2cc(F)c(C(F)(F)F)c(F)c2)NC(=O)CN(C)C(=O)[C@H](CC2CCCCC2)N(C)C(=O)CN(C)C(=O)CN(C)C1=O [Compound V] ([NMeGly(cBu)]I[Sar][Sar][NMeCha][Sar][hPhe(3,5-F2-4-CF3)][Pro(4,4-F2)][Ac5c][NMeChg][NMeD]-Pyrrolidide; lactam N-11) | < 1
2 | CCO[C@@H]1C[C@H]2C(=O)NC3(CCCC3)C(=O)N(C)[C@@H]([C@@H](C)CC)C(=O)N(C)[C@H](C)CC(=O)N(C)[C@@H](CC(C)C)C(=O)N[C@@H]([C@@H](C)CC)C(=O)N(C)[C@@H](C)C(=O)N3CC[C@H]3C(=O)N(C)[C@@H](Cc3ccc(C(F)(F)F)cc3)C(=O)N(C)CC(=O)N[C@@H](CCc3ccc(C(F)(F)F)c(Cl)c3)C(=O)N2C1 [Compound II] (cyclo([Ac5c][NMeI][NMedβ3hAla][NMeL]I[NMeA][Aze][NMePhe(4-CF3)][Sar][hPhe(3-Cl-4-CF3)][Hyp](Et))) | 1 (≈ 0.689 µM)
3 | CC[C@H](C)[C@@H]1NC(=O)[C@H](CC(C)C)N(C)C(=O)C[C@@H](C(=O)N(C)C)N(C)C(=O)[C@H](C2CCCC2)N(C)C(=O)C2(CCCC2)NC(=O)[C@@H]2CCCN2C(=O)[C@H](CCc2cc(F)c(C(F)(F)F)c(F)c2)NC(=O)CN(C)C(=O)[C@H](Cc2ccc(C)cc2)N(CC)C(=O)[C@@H]2CCN2C(=O)[C@H](C)N(C)C1=O [Compound I] ([NMeL]I[NMeA][Aze][NEtPhe(4-Me)][Sar][hPhe(3,5-F2-4-CF3)]P[Ac5c][NMeGly(cPent)][NMeD]-NMe2; lactam N-11) | < 1
4 | CC[C@H](C)[C@@H]1NC(=O)[C@H](CC(C)C)N(C)C(=O)C[C@@H](C(=O)N(C)C)N(C)C(=O)[C@H]([C@@H](C)CC)N(C)C(=O)C2(CCCC2)NC(=O)[C@@H]2CCCN2C(=O)[C@H](CCc2ccc(C(F)(F)F)c(Cl)c2)NC(=O)CN(C)C(=O)[C@H](Cc2ccc(C)cc2)N(C)C(=O)[C@@H]2CCN2C(=O)[C@H](C)N(C)C1=O [Compound IV] ([NMeL]I[NMeA][Aze][NMePhe(4-Me)][Sar][hPhe(3-Cl-4-CF3)]P[Ac5c][NMeI][NMeD]-NMe2; lactam N-11) | 20 (≈ 14.2 µM)
5 | CC[C@H](C)[C@@H]1NC(=O)[C@H](CC(C)C)N(C)C(=O)C[C@@H](C(=O)N2CCCC2)N(C)C(=O)[C@H]([C@@H](C)CC)N(C)C(=O)C2(CCCC2)NC(=O)[C@@H]2CCCN2C(=O)[C@H](CCc2ccc(C(F)(F)F)c(Cl)c2)NC(=O)CN(C)C(=O)[C@H](Cc2ccc(C)cc2)N(C)C(=O)[C@@H]2CCN2C(=O)[C@H](C)N(C)C1=O [Compound III] ([NMeL]I[NMeA][Aze][NMePhe(4-Me)][Sar][hPhe(3-Cl-4-CF3)]P[Ac5c][NMeI][NMeD]-Pyrrolidide; lactam N-11) | 10 (≈ 6.96 µM)
